# Test results from patent publication US20210308089A1, “METHODS OF TREATING AND/OR PREVENTING VIRAL INFECTIONS AND/OR DISEASES CAUSED BY VIRUSES IN A SUBJECT IN NEED THEREOF” (priority 2020, published 2021).
# System: patients of the REDUCE-IT and earlier EPA placebo-controlled trials
# Assay type: in vivo, human
# Conditions: R-I
smiles,measurement,value
"CC/C=C\C/C=C\C/C=C\C/C=C\C/C=C\CCCC(=O)OCC [icosapent ethyl, eicosapentaenoic acid ethyl ester]",AR: ALP high (Day 120),3.2%
same,AR: ALP high (Day 360),3.4%
same,AR: ALP high (Day 720),4.4%
same,AR: ALP high (Day 1080),4.4%
same,AR: ALP high (Day 1440),4.2%
same,AR: ALP high (Day 1800),4.3%
same,AR: ALP shift: normal to high (Day 120),1.5%
same,AR: ALP shift: normal to high (Day 360),1.8%
same,AR: ALP shift: normal to high (Day 720),3.0%
same,AR: ALP shift: normal to high (Day 1080),3.3%
same,AR: ALP shift: normal to high (Day 1440),3.2%
same,AR: ALP shift: normal to high (Day 1800),3.3%
same,AR: ALP shift: normal to low (Day 120),0.3%
same,AR: ALP shift: normal to low (Day 360),0.3%
same,AR: ALP shift: normal to low (Day 720),0.4%
same,AR: ALP shift: normal to low (Day 1080),0.4%
same,AR: ALP shift: normal to low (Day 1440),0.6%
same,AR: Albumin high (Day 120),1.0%
same,AR: Albumin high (Day 360),1.2%
same,AR: Albumin high (Day 720),2.1%
same,AR: Albumin high (Day 1080),1.9%
same,AR: Albumin high (Day 1440),1.8%
same,AR: Albumin shift: normal to high (Day 120),0.8%
same,AR: Albumin shift: normal to high (Day 360),0.9%
same,AR: Albumin shift: normal to high (Day 720),1.9%
same,AR: Albumin shift: normal to high (Day 1080),1.8%
same,AR: Albumin shift: normal to high (Day 1440),1.6%
same,AR: Bilirubin >1x ULN to 2x ULN,3.3%
same,AR: Bilirubin >2x ULN to 3x ULN,0.2%
same,AR: Bilirubin high (Day 120),1.9%
same,AR: Bilirubin high (Day 360),1.9%
same,AR: Bilirubin high (Day 720),2.0%
same,AR: Bilirubin high (Day 1080),2.4%
same,AR: Bilirubin high (Day 1440),2.3%
same,AR: Bilirubin high (Day 1800),2.6%
same,AR: Bilirubin shift: normal to high (Day 120),1.0%
same,AR: Bilirubin shift: normal to high (Day 360),0.9%
same,AR: Bilirubin shift: normal to high (Day 720),1.0%
same,AR: Bilirubin shift: normal to high (Day 1080),1.4%
same,AR: Bilirubin shift: normal to high (Day 1440),1.3%
same,AR: Bilirubin shift: normal to high (Day 1800),1.4%
same,AR: Calcium high (Day 120),1.0%
same,AR: Calcium high (Day 360),1.1%
same,AR: Calcium high (Day 720),1.2%
same,AR: Calcium low (Day 120),0.2%
same,AR: Calcium low (Day 360),0.2%
same,AR: Calcium low (Day 720),0.2%
same,AR: DBP High (≥100 mmHg),5.3%
same,AR: DBP High and Rose ≥10 mmHg,4.3%
same,AR: DBP Low (≤50 mmHG),1.0%
same,AR: DBP Low and dropped ≥10 mmHg,0.9%
same,AR: DBP dropped ≥10 mmHG,37.8%
same,AR: DBP rose ≥10 mmHg,36.5%
same,AR: High platelets (Day 720),1.5%
same,AR: Low platelets (Day 360),2.0%
same,AR: Low platelets (Day 720),3.1%
same,AR: Low platelets (Day 1080),3.2%
same,AR: Platelet count: PCS Low <100 × 10^3/uL,0.8%
same,AR: SBP High (≥160 mmHg),18.8%
same,AR: SBP High and rose ≥20 mmHg,11.9%
same,AR: SBP Low (≤90 mmHg),0.8%
same,AR: SBP dropped ≥20 mmHg,24.0%
same,AR: SBP low and dropped ≥20 mmHg,0.6%
same,AR: SBP rose ≥20 mmHg,29.6%
same,AR: Urate high (Day 120),13.4%
same,AR: Urate high (Day 360),13.0%
same,AR: Urate high (Day 720),12.4%
same,AR: Urate high (Day 1080),12.7%
same,AR: Urate high (Day 1440),12.7%
same,AR: Urate high (Day 1800),12.1%
same,AR: Urate shift: normal to high (Day 120),5.5%
same,AR: Urate shift: normal to high (Day 360),6.0%
same,AR: Urate shift: normal to high (Day 720),6.2%
same,AR: Urate shift: normal to high (Day 1080),7.1%
same,AR: Urate shift: normal to high (Day 1440),8.2%
same,AR: Urate shift: normal to high (Day 1800),8.2%
same,AR: Urate shift: normal to low (Day 120),0.1%
same,AR: Urate shift: normal to low (Day 360),0.2%
same,AR: Urate shift: normal to low (Day 720),0.2%
same,AR: Urate shift: normal to low (Day 1080),0.2%
same,AR: Urate shift: normal to low (Day 1440),0.3%
same,AR: Uric acid PCS High >7.5 mg/dL (Women),5.0%
same,AR: Uric acid PCS High >8.0 mg/dL (Men),15.3%
same,AR: Uric acid PCS Low <1.9 mg/dL (Women),0.0%
same,AR: Uric acid PCS Low <2.5 mg/dL (Men),0.4%
same,ARR: ALP high (Day 120),−1.5%
same,ARR: ALP high (Day 360),−2.0%
same,ARR: ALP high (Day 720),−2.4%
same,ARR: ALP high (Day 1080),−3.0%
same,ARR: ALP high (Day 1440),−2.9%
same,ARR: ALP high (Day 1800),−2.7%
same,ARR: ALP shift: normal to high (Day 120),−1.3%
same,ARR: ALP shift: normal to high (Day 360),−1.8%
same,ARR: ALP shift: normal to high (Day 720),−2.6%
same,ARR: ALP shift: normal to high (Day 1080),−3.0%
same,ARR: ALP shift: normal to high (Day 1440),−2.7%
same,ARR: ALP shift: normal to high (Day 1800),−2.6%
same,ARR: ALP shift: normal to low (Day 120),0.4%
same,ARR: ALP shift: normal to low (Day 360),0.3%
same,ARR: ALP shift: normal to low (Day 720),0.4%
same,ARR: ALP shift: normal to low (Day 1080),0.3%
same,ARR: ALP shift: normal to low (Day 1440),0.1%
same,ARR: Albumin high (Day 120),0.8%
same,ARR: Albumin high (Day 360),0.7%
same,ARR: Albumin high (Day 720),0.6%
same,ARR: Albumin high (Day 1080),0.7%
same,ARR: Albumin high (Day 1440),0.8%
same,ARR: Albumin shift: normal to high (Day 120),0.8%
same,ARR: Albumin shift: normal to high (Day 720),0.7%
same,ARR: Albumin shift: normal to high (Day 1080),0.4%
same,ARR: Albumin shift: normal to high (Day 1440),0.7%
same,ARR: Bilirubin >1x ULN to 2x ULN,3.5%
same,ARR: Bilirubin >2x ULN to 3x ULN,0.2%
same,ARR: Bilirubin high (Day 120),2.4%
same,ARR: Bilirubin high (Day 360),2.0%
same,ARR: Bilirubin high (Day 720),2.6%
same,ARR: Bilirubin high (Day 1080),2.0%
same,ARR: Bilirubin high (Day 1440),2.5%
same,ARR: Bilirubin high (Day 1800),2.3%
same,ARR: Bilirubin shift: normal to high (Day 120),1.3%
same,ARR: Bilirubin shift: normal to high (Day 360),1.3%
same,ARR: Bilirubin shift: normal to high (Day 720),1.3%
same,ARR: Bilirubin shift: normal to high (Day 1080),1.0%
same,ARR: Bilirubin shift: normal to high (Day 1440),1.8%
same,ARR: Bilirubin shift: normal to high (Day 1800),1.2%
same,ARR: Calcium high (Day 120),−0.2%
same,ARR: Calcium high (Day 360),−0.1%
same,ARR: Calcium high (Day 720),−0.3%
same,ARR: Calcium low (Day 120),0.1%
same,ARR: Calcium low (Day 360),0.2%
same,ARR: Calcium low (Day 720),0.2%
same,ARR: DBP High (≥100 mmHg),0.6%
same,ARR: DBP High and Rose ≥10 mmHg,0.4%
same,ARR: DBP Low (≤50 mmHG),0.1%
same,ARR: DBP Low and dropped ≥10 mmHg,0.0%
same,ARR: DBP dropped ≥10 mmHG,3.2%
same,ARR: DBP rose ≥10 mmHg,−0.6%
same,ARR: High platelets (Day 720),0.6%
same,ARR: Low platelets (Day 360),−1.8%
same,ARR: Low platelets (Day 720),−0.7%
same,ARR: Low platelets (Day 1080),−1.2%
